From patent EP0262053A2, “Amino-acid derivatives, their preparation and pharmaceutical compositions containing them” (CENTRE NATIONAL DE LA RECHERCHE SCIENTIFIQUE (CNRS), priority 1986, dated 1988) come the findings set out here.

In assay [1] the target is T1, enképhalinase purifiée du rein de lapin (Oryctolagus cuniculus, UniProt P08049).
T1 construct: l'enképhalinase purifiée du rein de lapin; from tissue; host or cells: rabbit kidney
T1 sequence (P08049 1-750): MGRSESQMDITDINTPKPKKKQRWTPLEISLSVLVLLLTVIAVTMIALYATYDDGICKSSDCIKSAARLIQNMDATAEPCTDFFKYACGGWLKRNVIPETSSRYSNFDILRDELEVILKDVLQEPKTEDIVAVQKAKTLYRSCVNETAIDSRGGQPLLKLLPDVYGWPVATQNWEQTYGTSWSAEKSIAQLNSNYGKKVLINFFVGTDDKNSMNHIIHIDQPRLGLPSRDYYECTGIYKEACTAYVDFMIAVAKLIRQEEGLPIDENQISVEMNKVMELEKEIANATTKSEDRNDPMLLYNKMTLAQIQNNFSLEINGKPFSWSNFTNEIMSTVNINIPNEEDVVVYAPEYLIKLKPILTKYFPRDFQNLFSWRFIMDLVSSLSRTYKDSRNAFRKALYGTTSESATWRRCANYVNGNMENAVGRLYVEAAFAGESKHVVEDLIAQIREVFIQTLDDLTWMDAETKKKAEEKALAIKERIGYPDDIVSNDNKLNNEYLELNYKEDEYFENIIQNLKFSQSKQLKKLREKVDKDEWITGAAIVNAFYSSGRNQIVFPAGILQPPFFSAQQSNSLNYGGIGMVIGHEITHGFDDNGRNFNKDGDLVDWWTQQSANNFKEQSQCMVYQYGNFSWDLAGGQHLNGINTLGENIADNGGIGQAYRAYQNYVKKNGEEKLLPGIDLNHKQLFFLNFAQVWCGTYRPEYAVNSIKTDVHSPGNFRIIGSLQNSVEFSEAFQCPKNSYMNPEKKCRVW
The assay can be described thus: Inhibitory power on enkephalinase (endopeptidase), substrate [3H]D-Ala2-Leu5 enkephalin. The assay is classed as biochemical. Particulars: purified rabbit kidney enzyme, 20 min at 25°C, Tris-HCl pH 7.4; read-out: Enképhalinase(M), concentrations inhibitrices 50 % (converted). As to the method: Le pouvoir inhibiteur est déterminé sur de l'enképhalinase purifiée du rein de lapin en suivant le protocole décrit dans la littérature (Llorens, C., B. Malfroy, J.C. Schwartz, G. Gacel, B.P. Roques et al., 1982, J. Neurochem. 39, 1081).
Après une pré-incubation de 15 minutes à 25°C, une aliquote de protéines est incubée pendant 20 minutes à 25°C en présence de 20 nanomoles de [³H]D-Ala²-Leu⁵ enképhaline et du produit à tester dans le tampon Tris-HCl (pH 7.4) 50 mM. On arrête la réaction par addition d'HCl 0.2 N. Le métabolite tritié [³H]Tyr-D-Ala-Gly est séparé de la D-Ala²-Leu⁵-enképhaline par chromatographie sur colonne de porapak.
(§1) L'activité des différents produits est exprimée en concentrations inhibitrices 50 %.

Assay [2] addresses T2, aminopeptidase purifiée du rein de lapin (Oryctolagus cuniculus, UniProt P15541).
T2 construct: purifiée du rein de lapin; from tissue; host or cells: rabbit kidney
T2 sequence (P15541 1-966): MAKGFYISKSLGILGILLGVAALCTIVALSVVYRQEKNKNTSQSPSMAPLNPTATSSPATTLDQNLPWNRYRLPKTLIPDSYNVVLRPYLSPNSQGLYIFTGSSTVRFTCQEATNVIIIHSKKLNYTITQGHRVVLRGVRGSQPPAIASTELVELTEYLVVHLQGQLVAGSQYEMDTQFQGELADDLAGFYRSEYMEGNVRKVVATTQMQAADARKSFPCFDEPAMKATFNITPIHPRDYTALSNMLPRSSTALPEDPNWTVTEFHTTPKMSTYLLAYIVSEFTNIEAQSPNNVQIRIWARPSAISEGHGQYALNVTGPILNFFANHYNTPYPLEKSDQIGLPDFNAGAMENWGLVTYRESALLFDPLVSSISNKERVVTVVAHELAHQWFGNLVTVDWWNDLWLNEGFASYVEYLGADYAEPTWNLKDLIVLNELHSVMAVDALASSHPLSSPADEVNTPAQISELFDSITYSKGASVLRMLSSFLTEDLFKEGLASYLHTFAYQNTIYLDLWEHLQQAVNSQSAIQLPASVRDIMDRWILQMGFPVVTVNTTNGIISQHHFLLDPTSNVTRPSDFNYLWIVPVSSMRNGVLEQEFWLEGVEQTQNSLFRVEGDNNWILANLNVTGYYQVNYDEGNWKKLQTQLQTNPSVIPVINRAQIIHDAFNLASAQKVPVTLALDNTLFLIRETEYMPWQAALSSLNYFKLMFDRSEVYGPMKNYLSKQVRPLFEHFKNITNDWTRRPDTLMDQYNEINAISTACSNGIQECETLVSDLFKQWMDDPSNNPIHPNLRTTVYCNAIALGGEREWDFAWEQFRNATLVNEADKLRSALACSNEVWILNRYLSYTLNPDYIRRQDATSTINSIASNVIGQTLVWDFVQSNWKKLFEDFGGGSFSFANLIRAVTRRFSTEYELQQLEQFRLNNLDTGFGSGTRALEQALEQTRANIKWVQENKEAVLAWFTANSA
The assay can be described thus: Inhibitory power on aminopeptidase, substrate [3H]Leu5-enkephalin. The assay is classed as biochemical. The settings on record: purified rabbit kidney enzyme, [3H]Leu5-enkephalin substrate; read-out: Aminopeptidase(M), concentrations inhibitrices 50 % (converted).
Source text: Le pouvoir inhibiteur est mesuré sur l'aminopeptidase purifiée du rein de lapin en suivant le protocole décrit dans la littérature (Romaine Bouboutou, Gilles Waksman, Joceyline Deim, Marie-Claude Fournié-Zaluski and Bernard P. Roques, Life Sciences, vol. 35, pp. 1023-1030, 1984).
Le dosage est conduit d'une manière identique au précédent, en utilisant la [³H]Leu⁵-enképhaline à la place de la [³H]D-Ala²-Leu⁵-enképhaline comme substrat.
as §1

In assay [3] the target is T3, dipeptidylaminopeptidase purifiée à partir du cerveau de rat (Rattus norvegicus, UniProt O55096).
T3 construct: purifiée à partir du cerveau de rat; from tissue; host or cells: rat brain
T3 sequence (O55096 2-738 limits assumed): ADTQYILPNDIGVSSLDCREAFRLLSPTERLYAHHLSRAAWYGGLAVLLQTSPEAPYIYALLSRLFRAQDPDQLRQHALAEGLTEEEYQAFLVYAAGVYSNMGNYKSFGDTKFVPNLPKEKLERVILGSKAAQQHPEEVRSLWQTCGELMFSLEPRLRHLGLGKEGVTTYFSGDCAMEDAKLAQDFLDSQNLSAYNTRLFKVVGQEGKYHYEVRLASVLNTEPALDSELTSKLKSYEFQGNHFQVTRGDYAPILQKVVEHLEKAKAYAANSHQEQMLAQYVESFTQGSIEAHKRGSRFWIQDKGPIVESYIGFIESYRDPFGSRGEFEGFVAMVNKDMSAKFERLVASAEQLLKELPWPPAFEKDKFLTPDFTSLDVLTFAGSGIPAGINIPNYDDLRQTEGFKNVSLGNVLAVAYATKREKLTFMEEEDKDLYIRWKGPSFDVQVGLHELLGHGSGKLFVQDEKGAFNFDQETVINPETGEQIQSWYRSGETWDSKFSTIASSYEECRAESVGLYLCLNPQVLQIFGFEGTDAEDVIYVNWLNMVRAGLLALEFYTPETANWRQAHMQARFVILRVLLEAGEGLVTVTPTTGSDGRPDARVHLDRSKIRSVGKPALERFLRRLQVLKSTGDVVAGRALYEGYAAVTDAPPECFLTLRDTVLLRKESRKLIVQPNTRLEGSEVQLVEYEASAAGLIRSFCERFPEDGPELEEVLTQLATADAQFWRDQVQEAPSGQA
The assay can be described thus: Inhibitory power on dipeptidylaminopeptidase, substrate [3H]Leu5-enkephalin. The assay is classed as biochemical. Particulars: enzyme purified from rat brain, [3H]Leu5-enkephalin substrate; read-out: Dipeptidyla-minopeptida-se(M), concentrations inhibitrices 50 % (converted).
Source text: Le pouvoir inhibiteur est mesuré sur la dipeptidylaminopeptidase purifiée à partir du cerveau de rat en suivant le protocole décrit (Romaine Bouboutou, Gilles Waksman, Joceyline Deim, Marie-Claude Fournié-Zaluski and Bernard P. Roques, Life Sciences, vol. 35, pp. 1023-1030, 1984).. On utilise également la [³H]Leu⁵-enképhaline comme substrat.
as §1

A further assay deals with souris. The assay is described as follows: Hot plate test (licking and jump reflex, plate at 55°C). The settings on record: mouse, intracerebroventricular, 50 )g, plate 55°C; for Saut: cut off 240 s. The class given is in vivo. On the procedure: Il concerne le réflexe de lèchement et de saut de la souris sur une plaque chauffée à 55°C selon la méthode de Jacob et coll. (Arch. Int. Pharmacodyn. 122, 287-300, 1959 : 133, 296-300, 1961).
Administrés par voie intracérébroventriculaire chez la souris, les inhibiteurs testés présentent un effet propre à la fois sur le temps de latence du saut et sur celui des lèchements. Ces effets sont reversés par la naloxone (antagoniste morphinique).
Le cut off correspond au moment où la souris est enlevée si elle n'a pas sauté ;
(In general: Hot-plate and tail-flick tests time the reaction to a heat stimulus.)

Take `O=C(O)CCNC(=O)C(CC(=O)NO)Cc1ccccc1` (racemic) [compound 1, N[N(hydroxy)amino-carbonyl-3 benzyl-2 Oxo-1 propyl] β-alanine]: the IC50 in assay [1] is 2e-09 M; in assay [2], 5e-07 M; in assay [3], 3e-08 M.
The like results for `CC(CC(=O)O)NC(=O)C(CC(=O)NO)Cc1ccccc1` (stereo not drawn) [compound 2, N[N(hydroxy)aminocarbonyl-3 benzyl-2 oxo-1 propyl] methyl-3 β alanine] were, in that order, 5e-09 M, 3e-07 M and 5e-10 M.
As to `CC(CNC(=O)C(CC(=O)NO)Cc1ccccc1)C(=O)O` (stereo not drawn) [compound 3, N[N(hydroxy)aminocarbonyl-3 benzyl-2 oxo-1 propyl] methyl-2 β alanine], the IC50 was 2e-09 M in assay [1], 4e-07 M in assay [2] and 2e-08 M in assay [3].
With `O=C(O)C[C@H](Cc1ccccc1)NC(=O)[C@@H](CC(=O)NO)Cc1ccccc1` [compound 5, N[N(hydroxy)aminocarbonyl-3 benzyl-2 oxo-1 propyl] benzyl-3 β alanine], the IC50 in assay [1] is 2e-09 M; in assay [2], 2e-08 M; in assay [3] it was 5e-10 M.
On the same counts, the results for `O=C(O)CCC(=O)N[C@@H](CC(=O)NO)Cc1ccccc1` [compound 8, N[carboxy-3 oxo-1 propyl) amino]-3 phenyl-4 (Nʹ[hydroxyamino]-1 oxo-1 butane] are 1.4e-09 M, 1e-05 M and 8e-07 M.
The like results for `CC(CC(=O)O)C(=O)N[C@@H](CC(=O)NO)Cc1ccccc1` (stereo partly shown) [compound 9] were, in that order, 9e-10 M, 1e-05 M and 1.8e-07 M.
Take `CC(CC(=O)NC(CC(=O)NOCc1ccccc1)Cc1ccccc1)C(=O)O` (stereo not shown) [compound 10]: the IC50 in assay [1] is 5e-10 M; in assay [2] it was 4e-06 M; in assay [3], 8e-07 M.
For “Acide N[(hydroxy amino carbonyl)-3 benzyl-2 oxo-1 propyl] amino-2 cyclohéxane carboxylique [compound 7]”, the IC50 in assay [1] is 4e-09 M; in assay [2] it was 5e-08 M; in assay [3], 1.5e-09 M. Besides, the “Lèchements (s)” value in the assay on souris (cut off 30 s) is 26,2 s. In addition, the “Saut” value in the assay with souris was found to be 240 s.
Take “Acide [N[N(hydroxyamino) carbonyl-1 phényl-3] propyl]-2 carboxamido-2 cyclohéxanoïque [compound 11]”: the IC50 in assay [1] is 5e-10 M; in assay [2], 7e-08 M; in assay [3], 2e-09 M. The “Lèchements” value in the assay on souris (cut off 30 s) is reported as 30 s. Also, in the assay with souris, the “Saut” value was 240 s.
“N[N-hydroxyamino) carbonyl-3 benzyl-2 oxo-1 propyl] phényl-2 β-alanine [compound 6]”: the IC50 is 1.5e-09 M in assay [1], 8e-08 M in assay [2] and 1e-09 M in assay [3].
